Reference: PubChem BioAssay (NCI)
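These data come from cells grown in 96-well plates and exposed to compound for 48 hours at five concentrations. The concentration for full growth arrest is given as TGI.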

Assays:
Test in all cases: NCI-60 cell line screen, 48 h
HCT-116 colon = test system: HCT-116 colon
A498 renal = test system: A498 renal
M14 melanoma = test system: M14 melanoma
NCI-H460 lung = test system: NCI-H460 lung
SK-MEL-2 melanoma = test system: SK-MEL-2 melanoma
UACC-257 melanoma = test system: UACC-257 melanoma
SK-MEL-5 melanoma = test system: SK-MEL-5 melanoma
UO-31 renal = test system: UO-31 renal
SF-295 CNS = test system: SF-295 CNS
MCF7 breast = test system: MCF7 breast
K-562 leukemia = test system: K-562 leukemia
MOLT-4 leukemia = test system: MOLT-4 leukemia
NCI/ADR-RES ovarian = test system: NCI/ADR-RES ovarian
SNB-75 CNS = test system: SNB-75 CNS
T-47D breast = test system: T-47D breast
MDA-N = test system: MDA-N
PC-3 prostate = test system: PC-3 prostate
UACC-62 melanoma = test system: UACC-62 melanoma
SNB-19 CNS = test system: SNB-19 CNS
MDA-MB-231 breast = test system: MDA-MB-231 breast
ACHN renal = test system: ACHN renal
HCT-15 colon = test system: HCT-15 colon
NCI-H226 lung = test system: NCI-H226 lung
A549 NSCLC = test system: A549 NSCLC
SF-268 CNS = test system: SF-268 CNS
OVCAR-3 ovarian = test system: OVCAR-3 ovarian
786-0 renal = test system: 786-0 renal
HCC-2998 colon = test system: HCC-2998 colon
HOP-62 NSCLC = test system: HOP-62 NSCLC
SK-OV-3 ovarian = test system: SK-OV-3 ovarian
HOP-92 NSCLC = test system: HOP-92 NSCLC
MDA-MB-435 = test system: MDA-MB-435
DU-145 prostate = test system: DU-145 prostate
NCI-H23 lung = test system: NCI-H23 lung
SK-MEL-28 melanoma = test system: SK-MEL-28 melanoma
COLO 205 colon = test system: COLO 205 colon
CAKI-1 renal = test system: CAKI-1 renal
NCI-H522 lung = test system: NCI-H522 lung
BT-549 breast = test system: BT-549 breast
SN12C renal = test system: SN12C renal
RPMI-8226 leukemia = test system: RPMI-8226 leukemia
KM12 colon = test system: KM12 colon
TK-10 renal = test system: TK-10 renal
OVCAR-4 ovarian = test system: OVCAR-4 ovarian
MALME-3M melanoma = test system: MALME-3M melanoma
U251 CNS = test system: U251 CNS
SF-539 CNS = test system: SF-539 CNS
SR leukemia = test system: SR leukemia
IGROV1 ovarian = test system: IGROV1 ovarian
HL-60(TB) leukemia = test system: HL-60(TB) leukemia
HT29 colon = test system: HT29 colon
OVCAR-5 ovarian = test system: OVCAR-5 ovarian
CCRF-CEM leukemia = test system: CCRF-CEM leukemia
HS 578T breast = test system: HS 578T breast
SW-620 colon = test system: SW-620 colon
EKVX NSCLC = test system: EKVX NSCLC
OVCAR-8 ovarian = test system: OVCAR-8 ovarian
LOX IMVI melanoma = test system: LOX IMVI melanoma
RXF 393 renal = test system: RXF 393 renal

Measured: TGI

C=CCOC(=O)C1=C(CCC[C@@H](C)O[Si](C)(C)C(C)(C)C)N=C(N)N2[C@H](CCO)CC[C@@H]12
35 µM: NCI/ADR-RES ovarian
34.9 µM: MALME-3M melanoma
40.1 µM: ACHN renal
23.2 µM: OVCAR-4 ovarian
29 µM: SNB-19 CNS
26.1 µM: CAKI-1 renal
24.1 µM: KM12 colon
27.8 µM: MDA-MB-435
20.8 µM: PC-3 prostate
25.7 µM: MCF7 breast
31 µM: SF-268 CNS
21.5 µM: K-562 leukemia
22.9 µM: COLO 205 colon
32.4 µM: NCI-H23 lung
35.7 µM: A498 renal
29.6 µM: UO-31 renal | MDA-MB-231 breast
30.3 µM: SK-MEL-2 melanoma
27.6 µM: M14 melanoma | RPMI-8226 leukemia
33 µM: UACC-62 melanoma
27.4 µM: HOP-62 NSCLC
31.7 µM: SN12C renal
33.8 µM: 786-0 renal
32.9 µM: MDA-N
32.5 µM: SNB-75 CNS | HCT-15 colon
33.9 µM: NCI-H226 lung
31.5 µM: NCI-H460 lung
28.9 µM: T-47D breast
25.2 µM: SF-295 CNS | NCI-H522 lung
24.9 µM: SK-MEL-5 melanoma | MOLT-4 leukemia
38.7 µM: UACC-257 melanoma
34.3 µM: TK-10 renal
35.5 µM: HCC-2998 colon
24.7 µM: U251 CNS
22 µM: A549 NSCLC
23.5 µM: OVCAR-3 ovarian
31.3 µM: SK-MEL-28 melanoma
28.6 µM: HCT-116 colon | DU-145 prostate
36.5 µM: BT-549 breast
27.2 µM: SK-OV-3 ovarian | HOP-92 NSCLC

CC(C)(CCCCC(C)(C)[N+](C)(C)C)[N+](C)(C)C
> 100 µM: HCT-116 colon | M14 melanoma | SF-539 CNS | NCI-H460 lung | UACC-257 melanoma | SK-MEL-5 melanoma | SR leukemia | UO-31 renal | IGROV1 ovarian | HL-60(TB) leukemia | MCF7 breast | K-562 leukemia | MOLT-4 leukemia | NCI/ADR-RES ovarian | SNB-75 CNS | T-47D breast | MDA-N | PC-3 prostate | SNB-19 CNS | MDA-MB-231 breast | HT29 colon | HCT-15 colon | A549 NSCLC | SF-268 CNS | 786-0 renal | HCC-2998 colon | HOP-62 NSCLC | SK-OV-3 ovarian | OVCAR-5 ovarian | CCRF-CEM leukemia | MDA-MB-435 | HS 578T breast | SW-620 colon | SK-MEL-28 melanoma | COLO 205 colon | EKVX NSCLC | NCI-H522 lung | SN12C renal | RPMI-8226 leukemia | TK-10 renal | OVCAR-4 ovarian | OVCAR-8 ovarian | U251 CNS

Brc1ccc2c(c1)-c1nc3nc4c(cc3cc1CC2)CCc1ccc(Br)cc1-4
> 100 µM: HCT-116 colon | A498 renal | M14 melanoma | SF-539 CNS | NCI-H460 lung | SK-MEL-2 melanoma | UACC-257 melanoma | SK-MEL-5 melanoma | UO-31 renal | SF-295 CNS | IGROV1 ovarian | MCF7 breast | K-562 leukemia | MOLT-4 leukemia | NCI/ADR-RES ovarian | SNB-75 CNS | T-47D breast | MDA-N | PC-3 prostate | SNB-19 CNS | LOX IMVI melanoma | MDA-MB-231 breast | ACHN renal | HCT-15 colon | NCI-H226 lung | A549 NSCLC | SF-268 CNS | OVCAR-3 ovarian | 786-0 renal | HCC-2998 colon | HOP-62 NSCLC | SK-OV-3 ovarian | HOP-92 NSCLC | RXF 393 renal | OVCAR-5 ovarian | MDA-MB-435 | NCI-H23 lung | SW-620 colon | SK-MEL-28 melanoma | COLO 205 colon | EKVX NSCLC | CAKI-1 renal | NCI-H522 lung | BT-549 breast | SN12C renal | RPMI-8226 leukemia | KM12 colon | TK-10 renal | OVCAR-4 ovarian | MALME-3M melanoma | OVCAR-8 ovarian | U251 CNS

CC(=O)Nc1ccc(COC(O)CN2CCCCC2)cc1[N+](=O)[O-] (stereo not given)
> 100 µM: HCT-116 colon | A498 renal | M14 melanoma | SF-539 CNS | NCI-H460 lung | SK-MEL-2 melanoma | UACC-257 melanoma | SK-MEL-5 melanoma | SR leukemia | UO-31 renal | SF-295 CNS | IGROV1 ovarian | HL-60(TB) leukemia | MCF7 breast | K-562 leukemia | MOLT-4 leukemia | NCI/ADR-RES ovarian | SNB-75 CNS | T-47D breast | MDA-N | PC-3 prostate | UACC-62 melanoma | SNB-19 CNS | MDA-MB-231 breast | ACHN renal | HT29 colon | HCT-15 colon | NCI-H226 lung | A549 NSCLC | SF-268 CNS | OVCAR-3 ovarian | 786-0 renal | HCC-2998 colon | HOP-92 NSCLC | RXF 393 renal | OVCAR-5 ovarian | CCRF-CEM leukemia | MDA-MB-435 | DU-145 prostate | NCI-H23 lung | SW-620 colon | SK-MEL-28 melanoma | COLO 205 colon | CAKI-1 renal | NCI-H522 lung | BT-549 breast | SN12C renal | RPMI-8226 leukemia | KM12 colon | TK-10 renal | OVCAR-4 ovarian | MALME-3M melanoma | OVCAR-8 ovarian | U251 CNS
